Tests used:
adenosine A2B receptor = adenosine A2B receptor (Homo sapiens (Human), UniProt P29275); experiment: Adenosine receptor activity assay (Table 1), A2B activity; type: biochemical; details: for Ratio: A2A activity to A2B activity (A2A/A2B); for IC50: read-out: Ave A2B cAMP IC50
adenosine A2A receptor = adenosine A2A receptor (Homo sapiens (Human), UniProt P29274); experiment: Adenosine receptor activity assay (Table 1), A2A activity; type: biochemical; details: read-out: Ave A2A cAMP IC50
adenosine A2A receptor, sequence (P29274 whole entry): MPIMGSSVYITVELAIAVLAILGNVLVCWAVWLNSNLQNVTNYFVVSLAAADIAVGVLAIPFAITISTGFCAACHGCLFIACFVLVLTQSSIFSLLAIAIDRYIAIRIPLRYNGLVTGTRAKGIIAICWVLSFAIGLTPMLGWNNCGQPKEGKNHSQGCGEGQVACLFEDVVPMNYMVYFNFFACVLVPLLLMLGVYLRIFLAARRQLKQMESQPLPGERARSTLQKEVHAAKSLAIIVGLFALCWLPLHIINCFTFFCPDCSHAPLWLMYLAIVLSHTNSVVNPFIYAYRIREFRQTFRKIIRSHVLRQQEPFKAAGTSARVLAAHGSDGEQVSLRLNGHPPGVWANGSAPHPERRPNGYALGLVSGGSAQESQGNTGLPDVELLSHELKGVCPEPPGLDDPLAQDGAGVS

adenosine A1 receptor [1] = molecular target: T1, adenosine A1 receptor (Homo sapiens (Human), UniProt P30542); experiment: Adenosine receptor activity assay (Table 1), A1 cAMP; type: cell-based
T1 sequence (P30542 whole entry): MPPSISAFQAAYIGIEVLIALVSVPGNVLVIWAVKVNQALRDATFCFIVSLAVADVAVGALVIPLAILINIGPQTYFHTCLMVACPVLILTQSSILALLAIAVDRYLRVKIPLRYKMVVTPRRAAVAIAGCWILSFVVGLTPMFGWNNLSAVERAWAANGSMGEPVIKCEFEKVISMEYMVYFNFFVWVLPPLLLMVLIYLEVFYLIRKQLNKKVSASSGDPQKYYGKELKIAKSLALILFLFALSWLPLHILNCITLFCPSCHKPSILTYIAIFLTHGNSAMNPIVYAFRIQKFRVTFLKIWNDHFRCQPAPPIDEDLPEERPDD

adenosine A3 receptor [2] = molecular target: T2, adenosine A3 receptor (Homo sapiens (Human), UniProt P0DMS8); experiment: Adenosine receptor activity assay (Table 1), A3 cAMP; type: cell-based
T2 sequence (P0DMS8 whole entry): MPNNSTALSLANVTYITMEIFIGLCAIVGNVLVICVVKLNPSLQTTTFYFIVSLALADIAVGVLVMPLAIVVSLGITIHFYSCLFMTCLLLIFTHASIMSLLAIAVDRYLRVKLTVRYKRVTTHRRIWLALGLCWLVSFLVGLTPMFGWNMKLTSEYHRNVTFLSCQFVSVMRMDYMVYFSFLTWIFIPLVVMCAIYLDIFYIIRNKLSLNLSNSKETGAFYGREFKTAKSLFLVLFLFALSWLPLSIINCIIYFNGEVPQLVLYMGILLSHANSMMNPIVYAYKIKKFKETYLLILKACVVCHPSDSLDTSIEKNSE

[3] = Hepatocyte intrinsic clearance, rat; type: in vitro ADME; details: hepatocytes
[4] = Hepatocyte intrinsic clearance, human; type: in vitro ADME; details: hepatocytes
adenosine A1 receptor [5] = molecular target: T1, adenosine A1 receptor; experiment: A1 cAMP IC50 assay (Table 1); type: biochemical
adenosine A3 receptor [6] = molecular target: T2, adenosine A3 receptor; experiment: A3 cAMP IC50 assay (Table 1); type: biochemical
CYP3A4 = CYP3A4 (Homo sapiens (Human), UniProt P08684); experiment: CYP450 inhibition at 10 μM, CYP3A4; type: in vitro ADME; details: human, 10 μM, read-out: CYP 450 % INH @ 10 μM
CYP3A4, sequence (P08684 whole entry): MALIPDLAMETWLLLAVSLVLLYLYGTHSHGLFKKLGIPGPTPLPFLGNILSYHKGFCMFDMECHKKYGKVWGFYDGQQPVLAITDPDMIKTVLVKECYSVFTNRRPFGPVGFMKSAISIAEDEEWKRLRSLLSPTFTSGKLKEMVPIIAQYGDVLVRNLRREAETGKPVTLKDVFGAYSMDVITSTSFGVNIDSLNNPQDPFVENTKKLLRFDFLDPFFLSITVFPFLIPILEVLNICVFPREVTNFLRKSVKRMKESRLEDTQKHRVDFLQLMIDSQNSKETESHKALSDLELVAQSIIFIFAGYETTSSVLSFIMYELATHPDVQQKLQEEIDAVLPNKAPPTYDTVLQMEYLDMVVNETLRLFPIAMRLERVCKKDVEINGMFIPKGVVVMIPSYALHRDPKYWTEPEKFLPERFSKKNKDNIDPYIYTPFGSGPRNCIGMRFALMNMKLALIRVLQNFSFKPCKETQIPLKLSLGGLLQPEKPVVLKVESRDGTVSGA

CYP2D6 = CYP2D6 (Homo sapiens (Human), UniProt P10635); experiment: CYP450 inhibition at 10 μM, CYP2D6; type: in vitro ADME; details: read-out: CYP 450 % INH @ 10 μM
CYP2D6, sequence (P10635 whole entry): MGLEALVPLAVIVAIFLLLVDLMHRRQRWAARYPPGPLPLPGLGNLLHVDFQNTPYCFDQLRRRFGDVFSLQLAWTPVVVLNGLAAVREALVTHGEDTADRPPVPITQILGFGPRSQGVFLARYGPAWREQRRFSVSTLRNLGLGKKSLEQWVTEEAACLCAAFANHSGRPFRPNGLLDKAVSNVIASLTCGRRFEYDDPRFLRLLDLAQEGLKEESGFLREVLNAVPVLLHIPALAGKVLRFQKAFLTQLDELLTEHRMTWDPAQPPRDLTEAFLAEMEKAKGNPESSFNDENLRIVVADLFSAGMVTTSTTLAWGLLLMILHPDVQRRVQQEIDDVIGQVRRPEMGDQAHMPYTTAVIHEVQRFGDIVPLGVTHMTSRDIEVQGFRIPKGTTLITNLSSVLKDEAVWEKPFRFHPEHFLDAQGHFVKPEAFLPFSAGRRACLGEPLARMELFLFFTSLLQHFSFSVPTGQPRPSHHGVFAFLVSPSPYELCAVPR

[7] = Liver microsome (LM) intrinsic clearance, rat; type: in vitro ADME
[8] = Liver microsome (LM) intrinsic clearance, human; type: in vitro ADME
[9] = Hepatocyte (Hep) intrinsic clearance, rat; type: in vitro ADME; details: hepatocytes
[10] = Hepatocyte (Hep) intrinsic clearance, human; type: in vitro ADME; details: hepatocytes

adenosine A2B receptor, sequence (P29275 whole entry): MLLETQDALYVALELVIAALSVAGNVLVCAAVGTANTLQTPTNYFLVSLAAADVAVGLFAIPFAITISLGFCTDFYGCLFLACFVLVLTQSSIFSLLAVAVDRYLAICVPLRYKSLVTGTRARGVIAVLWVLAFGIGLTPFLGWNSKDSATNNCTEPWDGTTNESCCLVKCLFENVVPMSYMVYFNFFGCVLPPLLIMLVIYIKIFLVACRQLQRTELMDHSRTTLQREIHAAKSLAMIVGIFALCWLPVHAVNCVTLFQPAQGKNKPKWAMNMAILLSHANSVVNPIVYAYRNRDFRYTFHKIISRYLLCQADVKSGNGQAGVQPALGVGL

Row | Compound | Ratio (adenosine A2B receptor) | IC50 (adenosine A2B receptor) | IC50 (adenosine A2A receptor) | IC50 (adenosine A1 receptor [1]) | IC50 (adenosine A3 receptor [2]) | hepatocyte CLint [3] | hepatocyte CLint [4] | IC50 (adenosine A1 receptor [5]) | IC50 (adenosine A3 receptor [6]) | inhibition at 10 µM (CYP3A4) | inhibition at 10 µM (CYP2D6) | LM CLint [7] | LM CLint [8] | hepatocyte CLint [9] | hepatocyte CLint [10]
1 | Cc1cc2nc(N[C@@H](C)c3cccnc3)nc(C(=O)N3CC[C@H](O)C3)c2s1 [Example Z297, ((S)-3-Hydroxypyrrolidin-1-yl)(6-methyl-2-(((S)-1-(pyridin-3-yl)ethyl)amino)thieno[3,2-d]pyrimidin-4-yl)methanone] | 227.82 | < 10 nM | > 500 nM | > 500 nM | > 500 nM | 22.6 µL/min/1e6 cells | 3.47 µL/min/1e6 cells |  |  |  |  |  |  |  | 
2 | Cc1cc2nc(N[C@@H](C)c3cccnc3)nc(C(=O)N3CC[C@@H](O)C3)c2s1 [Example Z281, ((R)-3-Hydroxypyrrolidin-1-yl)(6-methyl-2-(((S)-1-(pyridin-3-yl)ethyl)amino)thieno[3,2-d]pyrimidin-4-yl)methanone] | 88.64 | 10 to 50 nM | > 500 nM | > 500 nM | > 500 nM | 18.6 µL/min/1e6 cells | 5.45 µL/min/1e6 cells |  |  |  |  |  |  |  | 
3 | Cc1cc2nc(N[C@@H](C)c3cncc(F)c3)nc(C(=O)NC[C@@H](C)O)c2s1 [Example Z278, 2-(((S)-1-(5-Fluoropyridin-3-yl)ethyl)amino)-N—((R)-2-hydroxypropyl)-6-methylthieno[3,2-d]pyrimidine-4-carboxamide] | 87.33 | < 10 nM | 50 to 100 nM | 50 to 100 nM | 50 to 100 nM | 43.3 µL/min/1e6 cells | 14.8 µL/min/1e6 cells |  |  |  |  |  |  |  | 
4 | Cc1cc2nc(N[C@@H](C)c3cncc(F)c3)nc(C(=O)N3CC[C@H](O)C3)c2s1 [Example Z249, (2-(((S)-1-(5-Fluoropyridin-3-yl)ethyl)amino)-6-methylthieno[3,2-d]pyrimidin-4-yl)((S)-3-hydroxypyrrolidin-1-yl)methanone] | 197.12 | < 10 nM | 100 to 500 nM | > 500 nM | > 500 nM | 20.9 µL/min/1e6 cells | 4.53 µL/min/1e6 cells |  |  |  |  |  |  |  | 
5 | C[C@H](Nc1nc(C(=O)N2CC[C@@H](F)C2)c2sccc2n1)c1cccnc1 [Example Z8, ((R)-3-Fluoropyrrolidin-1-yl)(2-(((S)-1-(pyridin-3-yl)ethyl)amino)thieno[3,2-d]pyrimidin-4-yl)methanone] | 7.83 | 10 to 50 nM | 100 to 500 nM |  |  |  |  | > 500 nM | > 500 nM | 74% | 41% | 20.43 μL/min/mg/protein | 17.06 μL/min/mg/protein | 47.6 µL/min/1e6 cells | 7.75 µL/min/1e6 cells
6 | O=C(c1nc(NCc2cncc(F)c2)nc2ccsc12)N1CC[C@@H](F)C1 [Example Z60, (R)-(2-(((5-Fluoropyridin-3-yl)methyl)amino)thieno[3,2-d]pyrimidin-4-yl)(3-fluoropyrrolidin-1-yl)methanone] | 66.23 | < 10 nM | 100 to 500 nM |  |  |  |  | > 500 nM | > 500 nM | 65% | 11% | 46.03 μL/min/mg/protein | 34.26 μL/min/mg/protein | 63.1 µL/min/1e6 cells | 22.8 µL/min/1e6 cells
7 | CO[C@H]1CCN(C(=O)c2nc(N[C@@H](C)c3cccnc3)nc3ccsc23)C1 [Example Z18, ((S)-3-Methoxypyrrolidin-1-yl)(2-(((S)-1-(pyridin-3-yl)ethyl)amino)thieno[3,2-d]pyrimidin-4-yl)methanone] | 0.88 | 50 to 100 nM | 50 to 100 nM |  |  |  |  | > 500 nM | > 500 nM | 52% | 44% | 44.15 μL/min/mg/protein | 14.28 μL/min/mg/protein | 68.4 µL/min/1e6 cells | 12.3 µL/min/1e6 cells
8 | Cc1cc2nc(N[C@@H](C)c3cncc(F)c3)nc(C(=O)N3CC(O)C3)c2s1 [Example Z267, (S)-(2-((1-(5-Fluoropyridin-3-yl)ethyl)amino)-6-methylthieno[3,2-d]pyrimidin-4-yl)(3-hydroxyazetidin-1-yl)methanone] | 105.81 | < 10 nM | 50 to 100 nM | 50 to 100 nM | 50 to 100 nM | 45.9 µL/min/1e6 cells | 9.44 µL/min/1e6 cells |  |  |  |  |  |  |  | 
9 | C[C@H](Nc1nc(C(=O)N2CC[C@H](O)C2)c2sc(C(F)(F)F)cc2n1)c1cccnc1 [Example Z333, ((S)-3-Hydroxypyrrolidin-1-yl)(2-(((S)-1-(pyridin-3-yl)ethyl)amino)-6-(trifluoromethyl)thieno[3,2-d]pyrimidin-4-yl)methanone] | 146.28 | 10 to 50 nM | > 500 nM | > 500 nM | > 500 nM | 25.7 µL/min/1e6 cells | 19.5 µL/min/1e6 cells |  |  |  |  |  |  |  | 
10 | C[C@H]1CCN(C(=O)c2nc(N[C@@H](C)c3cccnc3)nc3ccsc23)C1 [Example Z63, ((S)-3-Methylpyrrolidin-1-yl)(2-(((S)-1-(pyridin-3-yl)ethyl)amino)thieno[3,2-d]pyrimidin-4-yl)methanone] | 12.78 | 10 to 50 nM | 100 to 500 nM |  |  |  |  | > 500 nM | > 500 nM | 83% | 39% | 71.55 μL/min/mg/protein | 47.64 μL/min/mg/protein | 65.9 µL/min/1e6 cells | 24.5 µL/min/1e6 cells
11 | C[C@H](NC(=O)c1nc(N[C@@H](C)c2ccccn2)nc2ccsc12)c1ccccn1 [Example Z54, N—((S)-1-(Pyridin-2-yl)ethyl)-2-(((S)-1-(pyridin-2-yl)ethyl)amino)thieno[3,2-d]pyrimidine-4-carboxamide] | 1.42 | 10 to 50 nM | 10 to 50 nM |  |  |  |  | > 500 nM | 50 to 100 nM | 38% | 3% | 39.84 μL/min/mg/protein | 14.10 μL/min/mg/protein | 126 µL/min/1e6 cells | 24.9 µL/min/1e6 cells
12 | C[C@H](Nc1nc(C(=O)N2CCC2)c2sccc2n1)c1cccnc1 [Example Z2, (S)-Azetidin-1-yl(2-((1-(pyridin-3-yl)ethyl)amino)thieno[3,2-d]pyrimidin-4-yl)methanone] | 31.36 | < 10 nM | 100 to 500 nM |  |  |  |  | > 500 nM | > 500 nM | 66% | 38% | 27.86 μL/min/mg/protein | 23.61 μL/min/mg/protein | 37.7 µL/min/1e6 cells | 9.27 µL/min/1e6 cells
13 | C[C@@H]1CCN(C(=O)c2nc(N[C@@H](C)c3cccnc3)nc3ccsc23)C1 [Example Z34, ((R)-3-Methylpyrrolidin-1-yl)(2-(((S)-1-(pyridin-3-yl)ethyl)amino)thieno[3,2-d]pyrimidin-4-yl)methanone] | 4.99 | 10 to 50 nM | 100 to 500 nM |  |  |  |  | > 500 nM | > 500 nM | 82% | 22% | 81.23 μL/min/mg/protein | 53.26 μL/min/mg/protein | 131 µL/min/1e6 cells | 23.5 µL/min/1e6 cells
14 | Cc1cc2nc(N[C@@H](C)c3cncc(F)c3)nc(C(=O)N3CC[C@@H](O)C3)c2s1 [Example Z250, (2-(((S)-1-(5-Fluoropyridin-3-yl)ethyl)amino)-6-methylthieno[3,2-d]pyrimidin-4-yl)((R)-3-hydroxypyrrolidin-1-yl)methanone] | 179.59 | < 10 nM | 100 to 500 nM | > 500 nM | > 500 nM | 23.9 µL/min/1e6 cells | 11.9 µL/min/1e6 cells |  |  |  |  |  |  |  | 
15 | O=C(c1nc(NCc2cncc(F)c2)nc2ccsc12)N1CC[C@H](O)C1 [Example Z62, (S)-(2-(((5-Fluoropyridin-3-yl)methyl)amino)thieno[3,2-d]pyrimidin-4-yl)(3-hydroxypyrrolidin-1-yl)methanone] | 60.76 | 10 to 50 nM | > 500 nM |  |  |  |  | > 500 nM | > 500 nM | 34% | 5% | 12.51 μL/min/mg/protein | 10.76 μL/min/mg/protein | 25.6 µL/min/1e6 cells | 7.12 µL/min/1e6 cells
16 | C[C@H](Nc1nc(C(=O)N2CC[C@@H](O)C2)c2sccc2n1)c1cccnc1 [Example Z29, ((R)-3-Hydroxypyrrolidin-1-yl)(2-(((S)-1-(pyridin-3-yl)ethyl)amino)thieno[3,2-d]pyrimidin-4-yl)methanone] | 24.95 | 50 to 100 nM | > 500 nM |  |  |  |  | > 500 nM | > 500 nM | 26% | 16% | 9.22 μL/min/mg/protein | 4.28 μL/min/mg/protein | 44 µL/min/1e6 cells | 4.27 µL/min/1e6 cells

Source: patent publication US11254686B1 (Corvus Pharmaceuticals, Inc., priority 2017, dated 2022)
